Laboratory results as given in patent US20240166660A1, “KRAS G12C INHIBITORS” (BeiGene Switzerland GmbH, priority 2021, published 2024).

biological target: KRAS (aa 1-169) G12C, C51S, C80L, C118S (Homo sapiens (Human), UniProt P01116, C118S/C51S/C80L/G12C); assay: Biochemical functional assay: SOS1-mediated nucleotide exchange of GDP-loaded KRAS G12C, binding to GST-cRaf RBD, FRET readout; settings: 3 hrs pre-incubation with compound at 24° C., SOS1, GTPyS, inhibition of nucleotide exchange
Summary of the method: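 GDP-loaded His-tagged KRAS construct preincubated with compound 3 h at 24° C in 25 mM HEPES pH7.5, 10 mM MgCl2, 0.01% Triton X-100; SOS1 (aa 564-1049), GTPγS and GST-cRaf RBD added for 3 h, then anti-His Tb cryptate/anti-GST XL665 for 3 h. HTRF 665/620 ratio; IC50 by four-parameter logistic fit.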

Sequence of KRAS (aa 1-169) G12C, C51S, C80L, C118S (P01116 other isoform, or with tags, fused parts or gaps G12C/C51S/C80L/C118S): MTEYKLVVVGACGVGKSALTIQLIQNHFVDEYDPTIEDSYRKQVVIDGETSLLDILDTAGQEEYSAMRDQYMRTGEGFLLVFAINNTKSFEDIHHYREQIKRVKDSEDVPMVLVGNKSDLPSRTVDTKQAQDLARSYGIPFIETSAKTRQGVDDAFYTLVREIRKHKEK

Structure (SMILES)	IC50 [nM]
C=C(F)C(=O)N1CCN(c2nc(OC3CCCC3N(C)C)nc3cc(-c4cccc5cccc(Cl)c45)c4c(c23)OCCC4)C[C@@H]1CC#N (stereo partly drawn) [Compound B50, 2-((2S)-4-(5-(8-chloronaphthalen-1-yl)-8-((2-(dimethylamino)cyclopentyl)oxy)-3,4-dihydro-2H-pyrano[2,3-f]quinazolin-10-yl)-1-(2-fluoroacryloyl)piperazin-2-yl)acetonitrile]	289
C=CC(=O)N1CC2(CCN(c3nc(OC[C@@H]4CCCN4C)nc4cc(-c5cccc6cccc(Cl)c56)c5ccoc5c34)CC2)C1 [Compound B51, (S)-1-(7-(4-(8-chloronaphthalen-1-yl)-7-((1-methylpyrrolidin-2-yl)methoxy)furo[2,3-f]quinazolin-9-yl)-2,7-diazaspiro[3.5]nonan-2-yl)prop-2-en-1-one]	1010
C=CC(=O)N1C[C@H](C)N(c2nc(OC[C@@H]3CCCN3C)nc3cc(-c4cccc5cccc(Cl)c45)c4ccoc4c23)C[C@H]1C [Compound B52, 1-((2R,5S)-4-(4-(8-chloronaphthalen-1-yl)-7-(((S)-1-methylpyrrolidin-2-yl)methoxy)furo[2,3-f]quinazolin-9-yl)-2,5-dimethylpiperazin-1-yl)prop-2-en-1-one]	654
C=C(F)C(=O)N1CCN(c2nc(OC[C@@H]3C[C@@H](F)CN3C)nc3cc(-c4cccc5cccc(Cl)c45)c4c(c23)OCCC4)C[C@@H]1CC#N [Compound B53, 2-((S)-4-(5-(8-chloronaphthalen-1-yl)-8-(((2S,4R)-4-fluoro-1-methylpyrrolidin-2-yl)methoxy)-3,4-dihydro-2H-pyrano[2,3-f]quinazolin-10-yl)-1-(2-fluoroacryloyl)piperazin-2-yl)acetonitrile]	28
C=C(F)C(=O)N1CCN(c2nc(OC[C@@H]3C[C@H](F)CN3C)nc3cc(-c4cccc5cccc(Cl)c45)c4c(c23)OCCC4)C[C@@H]1CC#N [Compound B54, 2-((S)-4-(5-(8-chloronaphthalen-1-yl)-8-(((2S,4S)-4-fluoro-1-methylpyrrolidin-2-yl)methoxy)-3,4-dihydro-2H-pyrano[2,3-f]quinazolin-10-yl)-1-(2-fluoroacryloyl)piperazin-2-yl)acetonitrile]	40
C=C(F)C(=O)N1CCN(c2nc(O[C@@H]3CN(C)C[C@H]3OC)nc3cc(-c4cccc5cccc(Cl)c45)c4c(c23)OCCC4)C[C@@H]1CC#N [Compound B55, 2-((S)-4-(5-(8-chloronaphthalen-1-yl)-8-(((3R,4R)-4-methoxy-1-methylpyrrolidin-3-yl)oxy)-3,4-dihydro-2H-pyrano[2,3-f]quinazolin-10-yl)-1-(2-fluoroacryloyl)piperazin-2-yl)acetonitrile]	134
C=CC(=O)N1CCN(c2nc(OC[C@@H]3CCCN3C)nc3cc(-c4c(C)cccc4C)c4ccoc4c23)CC1 [Compound B56, (S)-1-(4-(4-(2,6-dimethylphenyl)-7-((1-methylpyrrolidin-2-yl)methoxy)furo[2,3-f]quinazolin-9-yl)piperazin-1-yl)prop-2-en-1-one]	632
C=CC(=O)N1CCN(c2nc(OC[C@@H]3CCCN3C)nc3cc(-c4c(F)cccc4Cl)c4ccoc4c23)CC1 [Compound B57, 1-(4-(4-(2-chloro-6-fluorophenyl)-7-(((S)-1-methylpyrrolidin-2-yl)methoxy)furo[2,3-f]quinazolin-9-yl)piperazin-1-yl)prop-2-en-1-one]	1020
C=CC(=O)N1CCN(c2nc(OC[C@@H]3CCCN3C)nc3cc(-c4ccccc4C4CC4)c4ccoc4c23)CC1 [Compound B58, (S)-1-(4-(4-(2-cyclopropylphenyl)-7-((1-methylpyrrolidin-2-yl)methoxy)furo[2,3-f]quinazolin-9-yl)piperazin-1-yl)prop-2-en-1-one]	958
C=CC(=O)N1CCN(c2nc(OC[C@@H]3CCCN3C)nc3cc(-c4c(Cl)cccc4Cl)c4ccoc4c23)CC1 [Compound B59, (S)-1-(4-(4-(2,6-dichlorophenyl)-7-((1-methylpyrrolidin-2-yl)methoxy)furo[2,3-f]quinazolin-9-yl)piperazin-1-yl)prop-2-en-1-one]	745
